Assay results reported in US10150761B2, “Substituted pyridine-piperazinyl analogues as RSV antiviral compounds” (Janssen Sciences Ireland UC, priority 2013, dated 2018).

How the values were obtained:
rgRSV224 virus = experiment: Antiviral activity: rgRSV224 (GFP) replication in HeLa cells; type: cell-based, respiratory syncytial virus (RSV); conditions: for EC50: human respiratory syncytial virus, HeLa, 72 h, read-out: RSV HELA pEC50, rgRSV224 virus (MOI=1), HeLa cells, GFP expression, three days post-virus exposure (converted)
Procedure: Black 384-well clear-bottom microtiter plates (Corning, Amsterdam, The Netherlands) were filled via acoustic drop ejection using the echo liquid handler (Labcyte, Sunnyvale, Calif.), 200 nL of compound stock solutions (100% DMSO) were transferred to the assay plates, 9 serial 4-fold dilutions of compound were made, creating per quadrant the same compound concentration. The assay was initiated by adding 10 μL of culture medium to each well (RPMI medium without phenol red, 10% FBS-heat inactivated, 0.04% gentamycin (50 mg/mL). All addition steps are done by using a multidrop dispenser (Thermo Scientific, Erembodegem, Belgium). Next, rgRSV224 virus (MOI=1) diluted in culture medium was added to the plates, rgRSV224 virus is an engineered virus that includes an additional GFP gene (Hallak L K, Spillmann D. Collins P L, Peeples M E.
(§1) Glycosaminoglycan sulfation requirements for respiratory syncytial virus infection; Journal of virology (2000), 74(22), 10508-13) and was in-licensed from the NIH (Bethesda, Md., USA). Finally, 20 μL of a HeLa cell suspension (3,000 cells/well) were plated. Medium, virus- and mock-infected controls were included in each test. The wells contain 0.05% DMSO per volume. Cells were incubated at 37° C. in a 5% CO2 atmosphere. Three days post-virus exposure, viral replication was quantified by measuring GFP expression in the cells by an in house developed MSM laser microscope (Tibotec. Beerse, Belgium). The EC50 was defined as the 50% inhibitory concentration for GFP expression. In parallel, compounds were incubated for three days in a set of white 384-well microtiter plates (Corning) and the cytotoxicity of compounds in HeLa cells was determined by measuring the ATP content of the cells using the ATPlite kit (PerkinElmer, Zaventem, Belgium) according to the manufacturer's instructions. The CC50 was defined as the 50% concentration for cytotoxicity.

[1] = Cytotoxicity in HeLa cells (ATP content, ATPlite kit); type: cell-based; conditions: human, three days incubation, read-out: TOX HELA pCC50 (converted)
Procedure: as §1

HeLa cells = experiment: as above; type: cell-based; conditions: three days incubation
Procedure: as §1

Structure (SMILES)	EC50 (rgRSV224 virus) [nM]	melting point [°C]	CC50 at 3 days [1] [nM]	RSV HELA pEC50 (rgRSV224 virus; rgRSV224 virus (MOI=1), HeLa cells, GFP expression, three days post-virus exposure)	TOX HELA pCC50 (HeLa cells)
Fc1cccc(-c2nccnc2N2CCN(c3ccccc3)CC2)c1 [Compound 6]	575	139.51	> 100000		
COc1ccc(-c2ncccc2N2CCN(c3ccncc3)CC2)cc1 [Compound 4]		216		6.38	<4.01
CSc1ccc(-c2ncccc2N2CCN(c3ccncc3)CC2)cc1 [Compound 35]	117	160	45700		
c1ccc(-c2ncccc2N2CCN(c3ccncc3)CC2)cc1 [Compound 2]	603	204.15	1120		
FC(F)(F)Oc1ccc(-c2ncccc2N2CCN(c3ccncc3)CC2)cc1 [Compound 25]	871	176	33100		
Cn1ccc2cc(-c3ncccc3N3CCN(c4ccncc4)CC3)ccc21 [Compound 24]	72.4	197	46800		
Clc1ccc(-c2ncccc2N2CCN(c3ccncc3)CC2)cc1Cl [Compound 11]	269	159.5	28200		
OCCCn1ccc2cc(-c3ncccc3N3CCN(c4ccncc4)CC3)ccc21 [Compound 46]	148	110	52500		
c1cnc(N2CCN(c3ccncc3)CC2)c(N2CCN(c3ccncc3)CC2)c1 [Compound 69]	933	186	40700		
Cn1ccc2cc(C(F)(F)F)c(-c3ncccc3N3CCN(c4ccncc4)CC3)cc21 [Compound 49]	67.6	120	75900		
c1cnc(-c2ccc3occc3c2)c(N2CCN(c3ccncc3)CC2)c1 [Compound 27]	135	192	74100		
c1cnc(-c2ccc3c(c2)OCCO3)c(N2CCN(c3ccncc3)CC2)c1 [Compound 22]	537	88	398		
c1cnc(-c2ccc3ncsc3c2)c(N2CCN(c3ccncc3)CC2)c1 [Compound 45]	155	196	> 100000		
c1coc(-c2ccc(-c3ncccc3N3CCN(c4ccncc4)CC3)cc2)c1 [Compound 56]	95.5	224.32	19500		
c1cnc(-c2cc3ccccc3s2)c(N2CCN(c3ccncc3)CC2)c1 [Compound 21]	204	224	10500		
c1cnc(-c2ccncc2)c(N2CCN(c3ccncc3)CC2)c1 [Compound 20]	871	166	> 100000		
COc1ccc(-c2ccc(-c3ncccc3N3CCN(c4ccncc4)CC3)cc2)cc1 [Compound 62]	257	178	11500		
c1cnc(-c2cnc3ccccc3c2)c(N2CCN(c3ccncc3)CC2)c1 [Compound 33]	219	182	> 100000		
Fc1cccc(-c2ncccc2N2CCN(c3ccncc3)CC2)c1 [Compound 12]	871	184.88	> 100000		
c1cnc(-c2ccc3cc[nH]c3c2)c(N2CCN(c3ccncc3)CC2)c1 [Compound 44]	32.4	195	53700		
CS(=O)(=O)Nc1ccc(-c2ncccc2N2CCN(c3ccncc3)CC2)cc1 [Compound 42]	501	248	> 100000		
OCCCn1c(-c2ncccc2N2CCN(c3ccncc3)CC2)cc2ccccc21 [Compound 50]	6.61	110	> 100000		
Clc1cc(N2CCN(c3cccnc3-c3ccccc3)CC2)ccn1 [Compound 32]	105	122	135		
c1cnc(-c2ccc3ccccc3c2)c(N2CCN(c3ccncc3)CC2)c1 [Compound 10]	79.4	162.05	39800		
